# Results: patent US8975406B2, “Compound useful for the treatment of degenerative and inflammatory diseases” (Galapagos N.V., priority 2011, dated 2015)
# How the values were obtained:
# [1] = system: JAK-STAT signalling in HeLa cells; experiment: JAK-STAT signalling assay (pSTAT1(2)-luciferase reporter, OSM-triggered HeLa cells); type: cell-based; settings: human OSM 33 ng/mL
# Experimental: HeLa cells were maintained in Dulbecco's Modified Eagle's Medium (DMEM) containing 10% heat inactivated fetal calf serum, 100 U/mL penicillin and 100 μg/mL streptomycin. HeLa cells were used at 70% confluence for transfection. 20,000 cells in 87 μL cell culture medium were transiently transfected with 40 ng pSTAT1(2)-luciferase reporter (Panomics), 8 ng of LacZ reporter as internal control reporter and 52 ng of pBSK using 0.32 μL Jet-PEI (Polyplus) as transfection reagent per well in 96-well plate format. After overnight incubation at 37° C., 5% CO2, transfection medium was removed. 81 μL of DMEM+1.5% heat inactivated fetal calf serum was added. 9 μL compound at 10× concentration was added for 60 min and then 10 μL of human OSM (Peprotech) at 33 ng/mL final concentration.
# All compounds were tested in duplicate starting from 20 μM followed by a ⅓ serial dilution, 8 doses in total (20 μM-6.6 μM-2.2 μM-740 nM-250 nM-82 nM-27 nM-9 nM) in a final concentration of 0.2% DMSO.
# After overnight incubation at 37° C., 5% CO2 cells were lysed by adding 100 μL lysis buffer/well (PBS, 0.9 mM CaCl2, 0.5 mM MgCl2, 10% Trehalose, 0.05% Tergitol NP9, 0.3% BSA).
# 40 μL of cell lysate was used to read β-galactosidase activity by adding 180 μL β-Gal solution (30 μl ONPG 4 mg/mL+150 μL β-Galactosidase buffer (0.06 M Na2HPO4, 0.04 M NaH2PO4, 1 mM MgCl2)) for 20 min. The reaction was stopped by addition of 50 μL Na2CO3 1 M. Absorbance was read at 405 nm.
# Luciferase activity was measured using 40 μL cell lysate plus 40 μL of Steadylite® as described by the manufacturer (Perkin Elmer), on the Envision (Perkin Elmer).
# Omitting OSM was used as a positive control (100% inhibition). As negative control 0.5% DMSO (0% inhibition) was used. The positive and negative controls were used to calculate z′ and ‘percent inhibition’ (PIN) values. Percentage inhibition=((fluorescence determined in the presence of vehicle−fluorescence determined for sample with test compound present)divided by(fluorescence determined in the presence of vehicle−fluorescence determined for sample without trigger))*100.
# PIN values were plotted for compounds tested in dose-response and EC50 values were derived.
# [2] = target: T1, Recombinant human TYK2 catalytic domain (Homo sapiens, UniProt P29597); experiment: TYK2 inhibition assay; type: biochemical; settings: polyGT substrate, 33P-gamma-ATP filter assay, 0.1 μM ATP
# T1 construct: catalytic domain (amino acids 871-1187; catalog number 08-147); GST; purchased Carna Biosciences 08-147
# T1 sequence (P29597 871-1187): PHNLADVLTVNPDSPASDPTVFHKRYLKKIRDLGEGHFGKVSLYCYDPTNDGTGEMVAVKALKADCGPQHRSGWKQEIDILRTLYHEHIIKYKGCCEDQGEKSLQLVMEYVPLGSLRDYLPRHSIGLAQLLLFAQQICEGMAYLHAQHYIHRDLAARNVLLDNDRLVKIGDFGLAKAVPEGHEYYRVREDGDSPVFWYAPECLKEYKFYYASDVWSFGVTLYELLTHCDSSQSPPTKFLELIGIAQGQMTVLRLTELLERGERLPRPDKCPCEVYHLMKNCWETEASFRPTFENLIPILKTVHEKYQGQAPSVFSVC
# Experimental: Recombinant human TYK2 catalytic domain (amino acids 871-1187; catalog number 08-147) was purchased from Carna biosciences. 4 ng of TYK2 was incubated with 12.5 μg polyGT substrate (Sigma catalog number P0275) in kinase reaction buffer (25 mM Hepes pH 7.2, 50 mM NaCl, 0.5 mM EDTA, 1 mM DTT, 5 mM MnCl2, 10 mM MgCl2, 0.1% Brij-35, 0.1 μM non-radioactive ATP, 0.125 μCi ^33P-gamma-ATP (Perkin Elmer, catalog number NEG602K001MC) final concentrations) with or without 5 μL containing test compound or vehicle (DMSO, 1% final concentration), in a total volume of 25 μL, in a polypropylene 96-well plate (Greiner, V-bottom). After 90 min at 30° C., reactions were stopped by adding 25 μL/well of 150 mM phosphoric acid. All of the terminated kinase reaction was transferred to prewashed (75 mM phosphoric acid) 96 well filter plates (Perkin Elmer catalog number 6005177) using a cell harvester (Perkin Elmer). Plates were washed 6 times with 300 μL per well of a 75 mM phosphoric acid solution and the bottom of the plates was sealed. 40 μL/well of Microscint-20 was added, the top of the plates was sealed and readout was performed using the Topcount (Perkin Elmer). Kinase activity was calculated by subtracting counts per min (cpm) obtained in the presence of a positive control inhibitor (10 μM staurosporine) from cpm obtained in the presence of vehicle. The ability of a test compound to inhibit this activity was determined as: Percentage inhibition=((cpm determined for sample with test compound present−cpm determined for sample with positive control inhibitor)divided by(cpm determined in the presence of vehicle−cpm determined for sample with positive control inhibitor))*100.
# Dose dilution series were prepared for the compounds enabling the testing of dose-response effects in the TYK2 assay and the calculation of the IC50 for each compound. Each compound was routinely tested at concentration of 20 μM followed by a ⅓ serial dilution, 8 points (20 μM-6.67 μM-2.22 μM-740 nM-247 nM-82 nM-27 nM-9 nM) in a final concentration of 1% DMSO. When potency of compound series increased, more dilutions were prepared and/or the top concentration was lowered (e.g. 5 μM, 1 μM).
SMILES,IC50 [1],IC50 [2]
"O=C(Nc1cc2c(-c3ccc(OCc4ccccc4)cc3)cccn2n1)C1CC1 [Compound 2, N-(4-(4-(benzyloxy)phenyl)pyrazolo[1,5-a]pyridin-2-yl)cyclopropanecarboxamide]",,101 to 500 nM
"O=C(Nc1nn2cccc(-c3ccc(CN4CCS(=O)(=O)CC4)cc3)c2c1Cl)C1CC1 [Compound 13, Cyclopropanecarboxylic acid {4-[4-(1,1-dioxo-thiomorpholin-4-ylmethyl)-phenyl]-3-chloro-pyrazolo[1,5-a]pyridin-2-yl}-amide]",501 to 1000 nM,0.01 to 100 nM
"CC(=O)Nc1cc2c(-c3ccc(CN4CCS(=O)(=O)CC4)c(F)c3)cccn2n1 [Compound 27, N-{4-[4-(1,1-Dioxo-thiomorpholin-4-ylmethyl)-3-fluoro-phenyl]-pyrazolo[1,5-a]pyridin-2-yl}-acetamide]",101 to 500 nM,0.01 to 100 nM
"COc1ccc(-c2cccn3nc(NC(=O)C4CC4)cc23)cc1 [Compound 1, N-(4-(4-methoxyphenyl)pyrazolo[1,5-a]pyridin-2-yl)cyclopropanecarboxamide]",> 1000 nM,0.01 to 100 nM
"CC(=O)Nc1cc2c(-c3cnc(CN4CCN(S(C)(=O)=O)CC4)c(F)c3)cccn2n1 [Compound 26, N-(4-(5-fluoro-6-((4-(methylsulfonyl)piperazin-1-yl)methyl)pyridin-3-yl)pyrazolo[1,5-a]pyridin-2-yl)acetamide]",> 1000 nM,> 1000 nM
"CC(=O)Nc1cc2c(-c3ccc(CC(=O)N4CCOCC4)cc3)cccn2n1 [Compound 36, N-(4-(4-(2-morpholino-2-oxoethyl)phenyl)pyrazolo[1,5-a]pyridin-2-yl)acetamide]",,0.01 to 100 nM
"COc1ccc(-c2cccn3nc(NC(=O)C4CC4)c(-c4ccccc4)c23)cc1 [Compound 7, N-(4-(4-methoxyphenyl)-3-phenylpyrazolo[1,5-a]pyridin-2-yl)cyclopropanecarboxamide]",,> 1000 nM
"CC(=O)Nc1cc2c(-c3ccc(CN4CCN(CC(F)(F)F)CC4)c(F)c3)cccn2n1 [Compound 28, N-(4-(3-fluoro-4-((4-(2,2,2-trifluoroethyl)piperazin-1-yl)methyl)phenyl)pyrazolo[1,5-a]pyridin-2-yl)acetamide]",,101 to 500 nM
"CC(=O)Nc1cc2c(-c3ccc(CC(=O)N4COCC4(C)C)cc3)cccn2n1 [Compound 38, N-(4-(4-(2-(4,4-dimethyloxazolidin-3-yl)-2-oxoethyl)phenyl)pyrazolo[1,5-a]pyridin-2-yl)acetamide]",,101 to 500 nM
"CC(=O)Nc1cc2c(-c3ccc(CC(=O)N4CCCCC4)cc3)cccn2n1 [Compound 35, N-(4-(4-(2-oxo-2-(piperidin-1-yl)ethyl)phenyl)pyrazolo[1,5-a]pyridin-2-yl)acetamide]",,0.01 to 100 nM
"O=C(Nc1cc2c(-c3ccc(OCc4cccnc4)cc3)cccn2n1)C1CC1 [Compound 8, N-(4-(4-(pyridin-3-ylmethoxy)phenyl)pyrazolo[1,5-a]pyridin-2-yl)cyclopropanecarboxamide]",> 1000 nM,

# Further lines, results first:
IC50 [1],IC50 [2],SMILES
101 to 500 nM,0.01 to 100 nM,"CS(=O)(=O)N1CCN(Cc2ccc(-c3cccn4nc(NC(=O)C5CC5)cc34)cc2)CC1 [Compound 15, N-(4-(4-((4-(methylsulfonyl)piperazin-1-yl)methyl)phenyl)pyrazolo[1,5-a]pyridin-2-yl)cyclopropanecarboxamide]"
501 to 1000 nM,101 to 500 nM,"CC(=O)Nc1cc2c(-c3ccc(CN4CCN(S(C)(=O)=O)CC4)cc3)cccn2n1 [Compound 25, N-(4-(4-((4-(methylsulfonyl)piperazin-1-yl)methyl)phenyl)pyrazolo[1,5-a]pyridin-2-yl)acetamide]"
101 to 500 nM,0.01 to 100 nM,"C[C@@H](c1ccc(-c2cccn3nc(NC(=O)C4CC4)cc23)cc1)N1CCN(S(C)(=O)=O)CC1 [Compound 47, (S)-N-(4-(4-(1-(4-(methylsulfonyl)piperazin-1-yl)ethyl)phenyl)pyrazolo[1,5-a]pyridin-2-yl)cyclopropanecarboxamide]"
101 to 500 nM,0.01 to 100 nM,"CS(=O)(=O)C1CCN(Cc2ccc(-c3cccn4nc(NC(=O)C5CC5)cc34)cc2F)CC1 [Compound 18, N-(4-(3-fluoro-4-((4-(methylsulfonyl)piperidin-1-yl)methyl)phenyl)pyrazolo[1,5-a]pyridin-2-yl)cyclopropanecarboxamide]"
501 to 1000 nM,0.01 to 100 nM,"CS(=O)(=O)C1CCN(Cc2ccc(-c3cccn4nc(NC(=O)C5CC5)cc34)cc2)CC1 [Compound 17, N-(4-(4-((4-(methylsulfonyl)piperidin-1-yl)methyl)phenyl)pyrazolo[1,5-a]pyridin-2-yl)cyclopropanecarboxamide]"
> 1000 nM,101 to 500 nM,"CS(=O)(=O)N1CCN(Cc2ccc(-c3cccn4nc(NC(=O)C5CC5)cc34)cn2)CC1 [Compound 23, N-(4-(6-((4-(methylsulfonyl)piperazin-1-yl)methyl)pyridin-3-yl)pyrazolo[1,5-a]pyridin-2-yl)cyclopropanecarboxamide]"
501 to 1000 nM,0.01 to 100 nM,"CC(=O)Nc1cc2c(-c3ccc(C(C)N4CCN(S(C)(=O)=O)CC4)cc3)cccn2n1 (stereo not shown) [Compound 45, N-(4-(4-(1-(4-(methylsulfonyl)piperazin-1-yl)ethyl)phenyl)pyrazolo[1,5-a]pyridin-2-yl)acetamide]"
> 1000 nM,101 to 500 nM,"CS(=O)(=O)C1CCN(Cc2ccc(-c3cccn4nc(NC(=O)C5CC5)c(Cl)c34)cc2)CC1 [Compound 19, N-(3-chloro-4-(4-((4-(methylsulfonyl)piperidin-1-yl)methyl)phenyl)pyrazolo[1,5-a]pyridin-2-yl)cyclopropanecarboxamide]"
501 to 1000 nM,101 to 500 nM,"O=C(Nc1cc2c(-c3ccc(CN4CCCCC45COC5)cc3)cccn2n1)C1CC1 [Compound 48, N-(4-(4-(2-oxa-5-azaspiro[3.5]nonan-5-ylmethyl)phenyl)pyrazolo[1,5-a]pyridin-2-yl)cyclopropanecarboxamide]"
,0.01 to 100 nM,"CC(c1ccc(-c2cccn3nc(NC(=O)C4CC4)cc23)cc1)N1CCN(S(C)(=O)=O)CC1 (stereo not shown) [Compound 43, N-(4-(4-(1-(4-(methylsulfonyl)piperazin-1-yl)ethyl)phenyl)pyrazolo[1,5-a]pyridin-2-yl)cyclopropanecarboxamide]"
